#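 A five-concentration, 48-hour dose response in 96-well plates underlies each endpoint, interpolated linearly between surrounding concentrations. At the GI50, growth is halved. At the TGI there is no net growth.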
# Key:
# Assay in all cases: NCI tumour cell line growth inhibition, 48 h
# CAKI-1 renal = system: CAKI-1 renal
# SK-MEL-5 melanoma = system: SK-MEL-5 melanoma
# IGROV1 ovarian = system: IGROV1 ovarian
# HCC-2998 colon = system: HCC-2998 colon
# HOP-62 NSCLC = system: HOP-62 NSCLC
# NCI/ADR-RES ovarian = system: NCI/ADR-RES ovarian
# HT29 colon = system: HT29 colon
# HCT-15 colon = system: HCT-15 colon
# U251 CNS = system: U251 CNS
# DU-145 prostate = system: DU-145 prostate
# LOX IMVI melanoma = system: LOX IMVI melanoma
# SNB-75 CNS = system: SNB-75 CNS
# HS 578T breast = system: HS 578T breast
# MDA-MB-231 breast = system: MDA-MB-231 breast
# UACC-62 melanoma = system: UACC-62 melanoma
# CCRF-CEM leukemia = system: CCRF-CEM leukemia
# OVCAR-8 ovarian = system: OVCAR-8 ovarian
# NCI-H226 lung = system: NCI-H226 lung
# A549 NSCLC = system: A549 NSCLC
# SN12C renal = system: SN12C renal
# HOP-92 NSCLC = system: HOP-92 NSCLC
# TK-10 renal = system: TK-10 renal
# RPMI-8226 leukemia = system: RPMI-8226 leukemia
# MCF7 breast = system: MCF7 breast
# UO-31 renal = system: UO-31 renal
# BT-549 breast = system: BT-549 breast
# UACC-257 melanoma = system: UACC-257 melanoma
# SF-268 CNS = system: SF-268 CNS
# SW-620 colon = system: SW-620 colon
# MALME-3M melanoma = system: MALME-3M melanoma
# HL-60(TB) leukemia = system: HL-60(TB) leukemia
# SR leukemia = system: SR leukemia
# COLO 205 colon = system: COLO 205 colon
# MOLT-4 leukemia = system: MOLT-4 leukemia
# M14 melanoma = system: M14 melanoma
# NCI-H23 lung = system: NCI-H23 lung
# EKVX NSCLC = system: EKVX NSCLC
# SK-OV-3 ovarian = system: SK-OV-3 ovarian
# K-562 leukemia = system: K-562 leukemia
# T-47D breast = system: T-47D breast
# NCI-H460 lung = system: NCI-H460 lung
# OVCAR-4 ovarian = system: OVCAR-4 ovarian
# A498 renal = system: A498 renal
# SF-539 CNS = system: SF-539 CNS
# 786-0 renal = system: 786-0 renal
# KM12 colon = system: KM12 colon
# PC-3 prostate = system: PC-3 prostate
# SF-295 CNS = system: SF-295 CNS
# SNB-19 CNS = system: SNB-19 CNS
# MDA-MB-435 = system: MDA-MB-435
# SK-MEL-28 melanoma = system: SK-MEL-28 melanoma
# ACHN renal = system: ACHN renal
# HCT-116 colon = system: HCT-116 colon
# OVCAR-5 ovarian = system: OVCAR-5 ovarian
# NCI-H522 lung = system: NCI-H522 lung
# OVCAR-3 ovarian = system: OVCAR-3 ovarian
# SK-MEL-2 melanoma = system: SK-MEL-2 melanoma
structure (smiles),measurement,setting,value
S=C1NNC2(C(=S)N1)c1ccccc1-c1ccccc12,TGI,CAKI-1 renal,> 10 µM
same,TGI,SK-MEL-5 melanoma,> 10 µM
same,TGI,IGROV1 ovarian,> 10 µM
same,TGI,HCC-2998 colon,> 10 µM
same,TGI,HOP-62 NSCLC,> 10 µM
same,TGI,NCI/ADR-RES ovarian,> 10 µM
same,TGI,HT29 colon,> 10 µM
same,TGI,HCT-15 colon,> 10 µM
same,TGI,U251 CNS,> 10 µM
same,TGI,DU-145 prostate,> 10 µM
same,TGI,LOX IMVI melanoma,> 10 µM
same,TGI,SNB-75 CNS,> 10 µM
same,TGI,HS 578T breast,> 10 µM
same,TGI,MDA-MB-231 breast,> 10 µM
same,TGI,UACC-62 melanoma,> 10 µM
same,TGI,CCRF-CEM leukemia,> 10 µM
same,TGI,OVCAR-8 ovarian,> 10 µM
same,TGI,NCI-H226 lung,> 10 µM
same,TGI,A549 NSCLC,> 10 µM
same,TGI,SN12C renal,> 10 µM
same,TGI,HOP-92 NSCLC,> 10 µM
same,TGI,TK-10 renal,> 10 µM
same,TGI,RPMI-8226 leukemia,> 10 µM
same,TGI,MCF7 breast,> 10 µM
same,TGI,UO-31 renal,> 10 µM
same,TGI,BT-549 breast,> 10 µM
same,TGI,UACC-257 melanoma,> 10 µM
same,TGI,SF-268 CNS,> 10 µM
same,TGI,SW-620 colon,> 10 µM
same,TGI,MALME-3M melanoma,> 10 µM
same,TGI,HL-60(TB) leukemia,> 10 µM
same,TGI,SR leukemia,> 10 µM
same,TGI,COLO 205 colon,> 10 µM
same,TGI,MOLT-4 leukemia,> 10 µM
same,TGI,M14 melanoma,> 10 µM
same,TGI,NCI-H23 lung,> 10 µM
same,TGI,EKVX NSCLC,> 10 µM
same,TGI,SK-OV-3 ovarian,> 10 µM
same,TGI,K-562 leukemia,> 10 µM
same,TGI,T-47D breast,> 10 µM
same,TGI,NCI-H460 lung,> 10 µM
same,TGI,OVCAR-4 ovarian,> 10 µM
same,TGI,A498 renal,> 10 µM
same,TGI,SF-539 CNS,> 10 µM
same,TGI,786-0 renal,> 10 µM
same,TGI,KM12 colon,> 10 µM
COc1ccc(/C=C/C(=O)/C=C(O)/C=C/c2ccc(OC)c(OC)c2)cc1OC,GI50,PC-3 prostate,2.88 µM
same,TGI,PC-3 prostate,> 100 µM
same,GI50,SF-295 CNS,6.36 µM
same,TGI,SF-295 CNS,> 100 µM
same,GI50,CAKI-1 renal,3.55 µM
same,TGI,CAKI-1 renal,23 µM
same,GI50,SK-MEL-5 melanoma,3.01 µM
same,TGI,SK-MEL-5 melanoma,12.7 µM
same,GI50,SNB-19 CNS,28 µM
same,TGI,SNB-19 CNS,> 100 µM
same,GI50,IGROV1 ovarian,3.43 µM
same,TGI,IGROV1 ovarian,> 100 µM
same,GI50,HCC-2998 colon,14.5 µM
same,TGI,HCC-2998 colon,34.9 µM
same,GI50,HOP-62 NSCLC,9.23 µM
same,TGI,HOP-62 NSCLC,49.2 µM
same,GI50,NCI/ADR-RES ovarian,3.86 µM
same,TGI,NCI/ADR-RES ovarian,> 100 µM
same,GI50,HT29 colon,3.64 µM
same,TGI,HT29 colon,22.3 µM
same,GI50,MDA-MB-435,3.32 µM
same,TGI,MDA-MB-435,> 100 µM
same,GI50,HCT-15 colon,3.76 µM
same,TGI,HCT-15 colon,> 100 µM
same,GI50,U251 CNS,2.99 µM
same,TGI,U251 CNS,> 100 µM
same,GI50,SK-MEL-28 melanoma,18.4 µM
same,TGI,SK-MEL-28 melanoma,44 µM
same,GI50,DU-145 prostate,3.72 µM
same,TGI,DU-145 prostate,> 100 µM
same,GI50,LOX IMVI melanoma,2.54 µM
same,TGI,LOX IMVI melanoma,17.9 µM
same,GI50,ACHN renal,6.97 µM
same,TGI,ACHN renal,> 100 µM
same,GI50,SNB-75 CNS,16.5 µM
same,TGI,SNB-75 CNS,69 µM
same,GI50,HS 578T breast,3.68 µM
same,TGI,HS 578T breast,> 100 µM
same,GI50,MDA-MB-231 breast,6.19 µM
same,TGI,MDA-MB-231 breast,> 100 µM
same,GI50,HCT-116 colon,1.83 µM
same,TGI,HCT-116 colon,5.96 µM
same,GI50,UACC-62 melanoma,10.8 µM
same,TGI,UACC-62 melanoma,38.3 µM
same,GI50,CCRF-CEM leukemia,3.66 µM
same,TGI,CCRF-CEM leukemia,> 100 µM
same,GI50,OVCAR-8 ovarian,35.5 µM
same,TGI,OVCAR-8 ovarian,95.9 µM
same,GI50,NCI-H226 lung,3.59 µM
same,TGI,NCI-H226 lung,> 100 µM
same,GI50,A549 NSCLC,37.9 µM
same,TGI,A549 NSCLC,> 100 µM
same,GI50,SN12C renal,3.5 µM
same,TGI,SN12C renal,90.9 µM
same,GI50,HOP-92 NSCLC,14.1 µM
same,TGI,HOP-92 NSCLC,98.4 µM
same,GI50,TK-10 renal,4.03 µM
same,TGI,TK-10 renal,> 100 µM
same,GI50,OVCAR-5 ovarian,6.42 µM
same,TGI,OVCAR-5 ovarian,46.4 µM
same,GI50,RPMI-8226 leukemia,0.559 µM
same,TGI,RPMI-8226 leukemia,6.85 µM
same,GI50,NCI-H522 lung,2.52 µM
same,TGI,NCI-H522 lung,7.53 µM
same,GI50,MCF7 breast,0.493 µM
same,TGI,MCF7 breast,> 100 µM
same,GI50,UO-31 renal,5.27 µM
same,TGI,UO-31 renal,> 100 µM
same,GI50,UACC-257 melanoma,33.9 µM
same,TGI,UACC-257 melanoma,64.8 µM
same,GI50,SF-268 CNS,4.77 µM
same,TGI,SF-268 CNS,> 100 µM
same,GI50,SW-620 colon,1.85 µM
same,TGI,SW-620 colon,> 100 µM
same,GI50,MALME-3M melanoma,3.82 µM
same,TGI,MALME-3M melanoma,> 100 µM
same,GI50,OVCAR-3 ovarian,2.8 µM
same,TGI,OVCAR-3 ovarian,> 100 µM
same,GI50,SR leukemia,1.68 µM
same,TGI,SR leukemia,> 100 µM
same,GI50,COLO 205 colon,34.4 µM
same,TGI,COLO 205 colon,> 100 µM
same,GI50,MOLT-4 leukemia,5.38 µM
same,TGI,MOLT-4 leukemia,> 100 µM
same,GI50,M14 melanoma,5.88 µM
same,TGI,M14 melanoma,27.7 µM
same,GI50,NCI-H23 lung,3.94 µM
same,TGI,NCI-H23 lung,21.8 µM
same,GI50,EKVX NSCLC,4.13 µM
same,TGI,EKVX NSCLC,> 100 µM
same,GI50,SK-OV-3 ovarian,> 100 µM
same,TGI,SK-OV-3 ovarian,> 100 µM
same,GI50,K-562 leukemia,1.16 µM
same,TGI,K-562 leukemia,> 100 µM
same,GI50,SK-MEL-2 melanoma,13.8 µM
same,TGI,SK-MEL-2 melanoma,63.1 µM
same,GI50,T-47D breast,76.9 µM
same,TGI,T-47D breast,> 100 µM
same,GI50,NCI-H460 lung,4.6 µM
same,TGI,NCI-H460 lung,> 100 µM
same,GI50,OVCAR-4 ovarian,27.6 µM
same,TGI,OVCAR-4 ovarian,> 100 µM
same,GI50,786-0 renal,3.03 µM
same,TGI,786-0 renal,25.7 µM
same,GI50,KM12 colon,2.84 µM
same,TGI,KM12 colon,> 100 µM

# Source: PubChem BioAssay (NCI)
